From ChEMBL document CHEMBL1208667, “Permanent positive charge strongly influences DNA/RNA binding and antiproliferative activity of urea-phenanthridinium conjugates” (Eur J Med Chem, 2010)
Activity calls are given as the source filed them. The rule behind the calls is not given here.

Key:
Nucleic Acid [1] = assay: Binding affinity to poly G-poly C RNA in sodium cacodylate buffer at pH 7 by fluorescence titration assay; assay type: nucleic-acid assay
HT-29 = assay: Cytotoxicity against human HT-29 cells at 0.1 to 100 uM after 72 hrs by MTT assay; assay type: functional, cell-based
[2] = Solubility of the compound in water; assay type: physicochemical; details: buffer
Nucleic Acid [3] = assay: Binding affinity to […] assessed as change in melting temperature at compound to DNA molar ratio of 0.3 at pH 7 by thermal denaturation assay; assay type: nucleic-acid assay
Calf thymus DNA [4] = assay: Binding affinity to calf thymus DNA assessed as melting temperature at compound to DNA molar ratio of 0.2 at pH 7 by thermal denaturation assay; assay type: nucleic-acid assay; details: Bos taurus
Nucleic Acid [5] = assay: Binding affinity to poly A-poly U RNA in citric acid buffer at pH 5 by fluorescence titration assay; assay type: nucleic-acid assay
Nucleic Acid [6] = assay: Binding affinity to poly A-poly U RNA in citric acid buffer at pH 5 by fluorescence titration assay relative to control; assay type: nucleic-acid assay
HEp-2 = assay: Cytotoxicity against human Hep2 cells at 0.1 to 100 uM after 72 hrs by MTT assay; assay type: functional, cell-based
MIA PaCa-2 [7] = assay: Cytotoxicity against human MIAPaCa2 cells at 0.1 to 100 uM after 72 hrs by MTT assay; assay type: functional, cell-based
Nucleic Acid [8] = assay: Binding affinity to […] assessed as melting temperature at compound to DNA molar ratio of 0.3 at pH 5 by thermal denaturation assay; assay type: nucleic-acid assay
Nucleic Acid [9] = assay: Binding affinity to poly G-poly C RNA in sodium cacodylate buffer at pH 7 by fluorescence titration assay relative to control; assay type: nucleic-acid assay
MIA PaCa-2 [10] = assay: Cytotoxicity against human MIAPaCa2 cells after 72 hrs by MTT assay; assay type: functional, cell-based
Nucleic Acid [11] = assay: Binding affinity to […] assessed as melting temperature at compound to DNA molar ratio of 0.3 at pH 7 by thermal denaturation assay; assay type: nucleic-acid assay
Nucleic Acid [12] = assay: Binding affinity to AMP in sodium cacodylate buffer at pH 7 by fluorescence titration assay relative to control; assay type: nucleic-acid assay
Calf thymus DNA [13] = assay: Binding affinity to calf thymus DNA in sodium cacodylate buffer at pH 7 by fluorescence titration assay relative to control; assay type: nucleic-acid assay; details: Bos taurus
Nucleic Acid [14] = assay: Binding affinity to poly G-poly C RNA in citric acid buffer at pH 5 by fluorescence titration assay; assay type: nucleic-acid assay
Caco-2 = assay: Cytotoxicity against human Caco-2 cells at 100 uM after 72 hrs by MTT assay; assay type: functional, cell-based
Nucleic Acid [15] = assay: Binding affinity to poly A-poly U RNA assessed as change in melting temperature at compound to DNA molar ratio of 0.2 at pH 7 by thermal denaturation assay; assay type: nucleic-acid assay
Calf thymus DNA [16] = assay: Binding affinity to calf thymus DNA at compound to DNA molar ratio of 0.1 to 0.5 at pH 5 by circular dichroism; assay type: nucleic-acid assay; details: Bos taurus
Nucleic Acid [17] = assay: Binding affinity to poly A-poly U RNA assessed as melting temperature at compound to DNA molar ratio of 0.2 at pH 5 by thermal denaturation assay; assay type: nucleic-acid assay
Nucleic Acid [18] = assay: Binding affinity to […] assessed as melting temperature at compound to DNA molar ratio of 0.2 at pH 5 by thermal denaturation assay; assay type: nucleic-acid assay
Nucleic Acid [19] = assay: Binding affinity to CMP in sodium cacodylate buffer at pH 7 by fluorescence titration assay relative to control; assay type: nucleic-acid assay
Calf thymus DNA [20] = assay: Binding affinity to calf thymus DNA in sodium cacodylate buffer at pH 7 by fluorescence titration assay; assay type: nucleic-acid assay; details: Bos taurus
Calf thymus DNA [21] = assay: Binding affinity to calf thymus DNA assessed as change in melting temperature at compound to DNA molar ratio of 0.2 at pH 7 by thermal denaturation assay; assay type: nucleic-acid assay; details: Bos taurus
Calf thymus DNA [22] = assay: Binding affinity to calf thymus DNA assessed as melting temperature at compound to DNA molar ratio of 0.2 at pH 5 by thermal denaturation assay; assay type: nucleic-acid assay; details: Bos taurus
Nucleic Acid [23] = assay: Binding affinity to poly A-poly U RNA assessed as melting temperature at compound to DNA molar ratio of 0.3 at pH 7 by thermal denaturation assay; assay type: nucleic-acid assay
Nucleic Acid [24] = assay: Binding affinity to […] assessed as change in melting temperature at compound to DNA molar ratio of 0.2 at pH 7 by thermal denaturation assay; assay type: nucleic-acid assay
Nucleic Acid [25] = assay: Binding affinity to UMP in citric acid buffer at pH 5 by fluorescence titration assay relative to control; assay type: nucleic-acid assay
Nucleic Acid [26] = assay: Binding affinity to AMP in citric acid buffer at pH 5 by fluorescence titration assay relative to control; assay type: nucleic-acid assay
Nucleic Acid [27] = assay: Binding affinity to poly A-poly U RNA in sodium cacodylate buffer at pH 7 by fluorescence titration assay; assay type: nucleic-acid assay
Calf thymus DNA [28] = assay: Binding affinity to calf thymus DNA in citric acid buffer at pH 5 by fluorescence titration assay relative to control; assay type: nucleic-acid assay; details: Bos taurus
Nucleic Acid [29] = assay: Binding affinity to poly A-poly U RNA assessed as change in melting temperature at compound to DNA molar ratio of 0.2 at pH 5 by thermal denaturation assay; assay type: nucleic-acid assay
Nucleic Acid [30] = assay: Binding affinity to poly A-poly U RNA in sodium cacodylate buffer at pH 7 by fluorescence titration assay relative to control; assay type: nucleic-acid assay
Nucleic Acid [31] = assay: Binding affinity to CMP in citric acid buffer at pH 5 by fluorescence titration assay relative to control; assay type: nucleic-acid assay
Nucleic Acid [32] = assay: Binding affinity to poly G-poly C RNA in citric acid buffer at pH 5 by fluorescence titration assay relative to control; assay type: nucleic-acid assay
Nucleic Acid [33] = assay: Binding affinity to poly A-poly U RNA assessed as biphasic transitions of change in melting temperature at compound to DNA molar ratio of 0.2 at pH 5 by thermal denaturation assay; assay type: nucleic-acid assay
Calf thymus DNA [34] = assay: Binding affinity to calf thymus DNA in citric acid buffer at pH 5 by fluorescence titration assay; assay type: nucleic-acid assay; details: Bos taurus
Nucleic Acid [35] = assay: Binding affinity to poly dA-poly dT RNA in sodium cacodylate buffer at pH 7 by UV-v titration assay; assay type: nucleic-acid assay
Calf thymus DNA [36] = assay: Binding affinity to calf thymus DNA assessed as melting temperature at compound to DNA molar ratio of 0.3 at pH 5 by thermal denaturation assay; assay type: nucleic-acid assay; details: Bos taurus
Nucleic Acid [37] = assay: Binding affinity to […] assessed as change in melting temperature at compound to DNA molar ratio of 0.2 at pH 5 by thermal denaturation assay; assay type: nucleic-acid assay
Calf thymus DNA [38] = assay: Binding affinity to calf thymus DNA assessed as melting temperature at compound to DNA molar ratio of 0.3 at pH 7 by thermal denaturation assay; assay type: nucleic-acid assay; details: Bos taurus
Calf thymus DNA [39] = assay: Binding affinity to calf thymus DNA assessed as change in melting temperature at compound to DNA molar ratio of 0.2 at pH 5 by thermal denaturation assay; assay type: nucleic-acid assay; details: Bos taurus
Nucleic Acid [40] = assay: Binding affinity to poly dA-poly dT RNA in sodium cacodylate buffer at pH 7 by fluorescence titration assay relative to control; assay type: nucleic-acid assay
HeLa = assay: Cytotoxicity against human HeLa cells at 0.1 to 100 uM after 72 hrs by MTT assay; assay type: functional, cell-based
Calf thymus DNA [41] = assay: Binding affinity to calf thymus DNA assessed as change in melting temperature at compound to DNA molar ratio of 0.3 at pH 5 by thermal denaturation assay; assay type: nucleic-acid assay; details: Bos taurus
Nucleic Acid [42] = assay: Binding affinity to poly A-poly U RNA assessed as melting temperature at compound to DNA molar ratio of 0.2 at pH 7 by thermal denaturation assay; assay type: nucleic-acid assay

Cc1c2cc(NC(=O)NCCNC(=O)Nc3ccc4c(c3)c(C)[n+](C)c3ccccc43)ccc2c2ccccc2[n+]1C.O=S(=O)([O-])O.O=S(=O)([O-])O
log Ks (Nucleic Acid [1]): 5.4 | Activity (HT-29): Active | solubility [2]: 1460 µM | ΔTm (Nucleic Acid [3]): 6.1 °C | Tm (Calf thymus DNA [4]): 81.7 °C | log Ks (Nucleic Acid [5]): 6.6 | RFU (Nucleic Acid [6]): 2.3 | Activity (HEp-2): Active | Activity (MIA PaCa-2 [7]): Active | Tm (Nucleic Acid [8]): 60.7 °C | RFU (Nucleic Acid [9]): 0.7 | Activity (MIA PaCa-2 [10]): Dose-dependent effect | Tm (Nucleic Acid [11]): 71 °C | RFU (Nucleic Acid [12]): -45.2 | RFU (Calf thymus DNA [13]): 3 | log Ks (Nucleic Acid [14]): 5.5 | Activity (Caco-2): inactive | ΔTm (Nucleic Acid [15]): 0 °C | Activity (Calf thymus DNA [16]): Active | Tm (Nucleic Acid [17]): 84.1 °C | Tm (Nucleic Acid [18]): 59.4 °C | RFU (Nucleic Acid [19]): 47.7 | log Ks (Calf thymus DNA [20]): 6.1 | ΔTm (Calf thymus DNA [21]): 2.4 °C | Tm (Calf thymus DNA [22]): 72.7 °C | Tm (Nucleic Acid [23]): 51.6 °C | ΔTm (Nucleic Acid [24]): 5.3 °C | RFU (Nucleic Acid [25]): -13.5 | RFU (Nucleic Acid [26]): -6.9 | log Ks (Nucleic Acid [27]): 5.3 | RFU (Calf thymus DNA [28]): 2.6 | ΔTm (Nucleic Acid [29]): 1.5 °C | RFU (Nucleic Acid [30]): 9.2 | RFU (Nucleic Acid [31]): 0.3 | RFU (Nucleic Acid [32]): 0 | ΔTm (Nucleic Acid [33]): -0.1 °C | log Ks (Calf thymus DNA [34]): 6.4 | log Ks (Nucleic Acid [35]): 5 | Tm (Calf thymus DNA [36]): 75.6 °C | ΔTm (Nucleic Acid [37]): 9.4 °C | Tm (Calf thymus DNA [38]): 83.1 °C | ΔTm (Calf thymus DNA [39]): 12.1 °C | RFU (Nucleic Acid [40]): 15 | Activity (HeLa): Active | ΔTm (Calf thymus DNA [41]): 15 °C | Tm (Nucleic Acid [42]): 51.5 °C
